Like-named read-outs stand apart in the source and are kept apart here.
Target: T1, human β3-AR (Homo sapiens, UniProt P13945)
T1 construct: expressed in transfected cells; host or cells: CHO (Chinese hamster ovary) cells, stably transfected
Assay: cAMP functional agonist assay (LANCE TR-FRET) in CHO cells expressing cloned human β3-AR
Type: cell-based
Settings: for Fold drop in potency vs. 2-chloropyridine analog: EC50 of comparative example divided by EC50 of corresponding 2-chloropyridine compound; for Human β3-AR Agonist Activity (%): percent maximum activation relative to isoproterenol

[1] = CHO cells stably expressing cloned human β3-adrenoceptor, cAMP release, read-out: Human β3-AR Agonism EC50

T1 sequence (P13945 whole entry): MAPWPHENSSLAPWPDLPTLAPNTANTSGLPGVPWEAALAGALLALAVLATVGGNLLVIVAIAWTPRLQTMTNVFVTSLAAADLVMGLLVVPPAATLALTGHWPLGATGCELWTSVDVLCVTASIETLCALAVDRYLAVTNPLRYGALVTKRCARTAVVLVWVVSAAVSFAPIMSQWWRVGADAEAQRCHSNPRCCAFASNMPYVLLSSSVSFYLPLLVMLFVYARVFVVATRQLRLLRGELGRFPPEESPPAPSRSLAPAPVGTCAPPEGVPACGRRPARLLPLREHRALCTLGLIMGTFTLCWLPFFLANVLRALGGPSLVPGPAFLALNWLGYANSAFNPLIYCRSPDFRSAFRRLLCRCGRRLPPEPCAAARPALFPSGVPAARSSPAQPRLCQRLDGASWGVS

Question: `Cc1cc(CN(C)C(=O)c2ccc(C[C@@H]3CC[C@H]([C@H](O)c4cncc(F)c4)N3)cc2)[nH]n1` [Example 4-R, 4-(((2S,5R)-5-((R)-(5-fluoropyridin-3-yl)(hydroxy)methyl)pyrrolidin-2-yl)methyl)-N-methyl-N-((5-methyl-1H-pyrazol-3-yl)methyl)benzamide] was tested. Which EC50 [1] did it give?
Answer: Its EC50 is 45 nM.

Question: What about the “Fold drop in potency vs. 2-chloropyridine analog” value of the same compound?
Answer: The value was 8.3 fold.

Question: And the “Human β3-AR Agonist Activity (%)” value?
Answer: Its value is 101%.

Question: `Cc1cc(CN(C)C(=O)c2ccc(C[C@@H]3CC[C@H]([C@H](O)c4ccccc4)N3)cc2)cnc1F` [Example 39-B] was tested. Which EC50 [1] did it give?
Answer: The EC50 was 2 nM.

Question: And the “Fold drop in potency vs. 2-chloropyridine analog” value?
Answer: Its value is 3.8 fold.

Question: And the “Human β3-AR Agonist Activity (%)” value?
Answer: Its value is 104%.

Question: With `CN(Cc1ccnnc1)C(=O)c1ccc(C[C@@H]2CC[C@H]([C@H](O)c3ccccc3)N2)cc1` [Example 42-B, 4-(((2S,5R)-5-((R)-hydroxy(phenyl)methyl)pyrrolidin-2-yl)methyl)-N-methyl-N-(pyridazin-4-ylmethyl)benzamide] as the compound, how does the EC50 [1] read?
Answer: Its EC50 is 55 nM.

Question: And the “Fold drop in potency vs. 2-chloropyridine analog” value?
Answer: The value was 16.1 fold.

Question: What about the “Human β3-AR Agonist Activity (%)” value of the same compound?
Answer: Its value is 111%.

Question: What does the source list for `CN(Cc1cccnc1)C(=O)c1ccc(C[C@@H]2CC[C@H]([C@H](O)c3cccc(Cl)c3)N2)cc1` [Example 21-D, 4-(((2S,5R)-5-((R)-(3-chlorophenyl)(hydroxy)methyl)pyrrolidin-2-yl)methyl)-N-methyl-N-(pyridin-3-ylmethyl)benzamide]?
Answer: EC50 [1]: 120 nM; Fold drop in potency vs. 2-chloropyridine analog: 28.2 fold; Human β3-AR Agonist Activity (%): 97%

Question: `COC(=O)c1cncc(CN(C)C(=O)c2ccc(C[C@@H]3CC[C@H]([C@H](O)c4ccc(Cl)cc4)N3)cc2)c1` [Example 34-G, Methyl 5-((4-(((2S,5R)-5-((R)-(4-chlorophenyl)(hydroxy)methyl)pyrrolidin-2-yl)methyl)-N-methylbenzamido)methyl)nicotinate] was tested. Which EC50 [1] did it give?
Answer: The EC50 was 18 nM.

Question: What about the “Fold drop in potency vs. 2-chloropyridine analog” value of the same compound?
Answer: The value was 2.9 fold.

Question: And the “Human β3-AR Agonist Activity (%)” value?
Answer: The value was 90%.

Question: Which results are given for `CN(Cc1cncc(C(C)(C)O)c1)C(=O)c1ccc(C[C@@H]2CC[C@H]([C@H](O)c3ccc(Cl)nc3)N2)cc1` [Example 32-A, 4-(((2S,5R)-5-((R)-(6-chloropyridin-3-yl)(hydroxy)methyl)pyrrolidin-2-yl)methyl)-N-((5-(2-hydroxypropan-2-yl)pyridin-3-yl)methyl)-N-methylbenzamide]?
Answer: EC50 [1]: 13 nM; Human β3-AR Agonist Activity (%): 94%

Question: For `CN(Cc1cnccn1)C(=O)c1ccc(C[C@@H]2CC[C@H]([C@H](O)c3cccc(Cl)c3)N2)cc1` [Example 40-D, 4-(((2S,5R)-5-((R)-(3-chlorophenyl)(hydroxy)methyl)pyrrolidin-2-yl)methyl)-N-methyl-N-(pyrazin-2-ylmethyl)benzamide], which EC50 [1] is on record?
Answer: The EC50 was 567 nM.

Question: What about the “Fold drop in potency vs. 2-chloropyridine analog” value of the same compound?
Answer: The value was 48.6 fold.

Question: And the “Human β3-AR Agonist Activity (%)” value?
Answer: The value was 86%.

Question: How did the EC50 [1] turn out when `CN(Cc1cncc(C(=O)O)c1)C(=O)c1ccc(C[C@@H]2CC[C@H]([C@H](O)c3ccccc3)N2)cc1` [Example 33-B, 5-((4-(((2S,5R)-5-((R)-hydroxy(phenyl)methyl)pyrrolidin-2-yl)methyl)-N-methylbenzamido)methyl)nicotinic acid] was run?
Answer: Its EC50 is 87 nM.

Question: What about the “Fold drop in potency vs. 2-chloropyridine analog” value of the same compound?
Answer: The value was 87.0 fold.

Question: What about the “Human β3-AR Agonist Activity (%)” value of the same compound?
Answer: The value was 111%.

Question: What does the source list for `C[C@H](c1nn(C)c(=O)o1)N(C)C(=O)c1ccc(C[C@@H]2CC[C@H]([C@H](O)c3ccc(Cl)nc3)N2)cc1` [Example 18-A, 4-(((2S,5R)-5-((R)-(6-chloropyridin-3-yl)(hydroxy)methyl)pyrrolidin-2-yl)methyl)-N-methyl-N—((R)-1-(4-methyl-5-oxo-4,5-dihydro-1,3,4-oxadiazol-2-yl)ethyl)benzamide]?
Answer: EC50 [1]: 8 nM; Human β3-AR Agonist Activity (%): 101%

Question: Which results are given for `CC(c1cccnc1)N(C)C(=O)c1ccc(C[C@@H]2CC[C@H]([C@H](O)c3ccc(Cl)nc3)N2)cc1` (stereo partly drawn) [Example 23-A, 4-(((2S,5R)-5-((R)-(6-chloropyridin-3-yl)(hydroxy)methyl)pyrrolidin-2-yl)methyl)-N-methyl-N-(1-(pyridin-3-yl)ethyl)benzamide]?
Answer: EC50: 2 nM; Human β3-AR Agonist Activity (%): 96%

Question: With `Cc1cc(CN(C)C(=O)c2ccc(C[C@@H]3CC[C@H]([C@H](O)c4ccc(OC(F)F)cc4)N3)cc2)n[nH]1` [Example 4-E, 4-(((2S,5R)-5-((R)-(4-(difluoromethoxy)phenyl)(hydroxy)methyl)pyrrolidin-2-yl)methyl)-N-methyl-N-((5-methyl-1H-pyrazol-3-yl)methyl)benzamide] as the compound, how does the EC50 [1] read?
Answer: Its EC50 is 90 nM.

Question: What about the “Fold drop in potency vs. 2-chloropyridine analog” value of the same compound?
Answer: Its value is 16.4 fold.

Question: What about the “Human β3-AR Agonist Activity (%)” value of the same compound?
Answer: Its value is 79%.

Question: With `CN(Cc1nc2ccsc2c(=O)[nH]1)C(=O)c1ccc(C[C@@H]2CC[C@H]([C@H](O)c3ccccc3)N2)cc1` [Example 44-B, 4-(((2S,5R)-5-((R)-hydroxy(phenyl)methyl)pyrrolidin-2-yl)methyl)-N-methyl-N-((4-oxo-3,4-dihydrothieno[3,2-d]pyrimidin-2-yl)methyl)benzamide] as the compound, how does the EC50 [1] read?
Answer: Its EC50 is 4 nM.

Question: What about the “Fold drop in potency vs. 2-chloropyridine analog” value of the same compound?
Answer: The value was 1.7 fold.

Question: What about the “Human β3-AR Agonist Activity (%)” value of the same compound?
Answer: Its value is 97%.

Question: What does the source list for `CC(=O)c1ccc([C@@H](O)[C@H]2CC[C@@H](Cc3ccc(C(=O)N(C)Cc4cccnc4)cc3)N2)cn1` [Example 21-J, 4-(((2S,5R)-5-((R)-(6-acetylpyridin-3-yl)(hydroxy)methyl)pyrrolidin-2-yl)methyl)-N-methyl-N-(pyridin-3-ylmethyl)benzamide]?
Answer: EC50 [1]: ≥ 10000 nM; Fold drop in potency vs. 2-chloropyridine analog: >2300 fold; Human β3-AR Agonist Activity (%): 38%

Question: What does the source list for `Cc1cc(CN(C)C(=O)c2ccc(C[C@@H]3CC[C@H]([C@H](O)c4cccnc4)N3)cc2)cnc1F` [Example 39-H]?
Answer: EC50 [1]: 7 nM; Fold drop in potency vs. 2-chloropyridine analog: 14.1 fold; Human β3-AR Agonist Activity (%): 103%

Question: Which results are given for `CN(Cc1cccnc1)C(=O)c1ccc(C[C@@H]2CC[C@H]([C@H](O)c3ccc(F)cc3)N2)cc1` [Example 21-F, 4-(((2S,5R)-5-((R)-(4-fluorophenyl)(hydroxy)methyl)pyrrolidin-2-yl)methyl)-N-methyl-N-(pyridin-3-ylmethyl)benzamide]?
Answer: EC50 [1]: 12 nM; Fold drop in potency vs. 2-chloropyridine analog: 2.9 fold; Human β3-AR Agonist Activity (%): 94%

Question: `CN(Cc1cccnc1)C(=O)c1ccc(C[C@@H]2CC[C@H]([C@H](O)c3ccc(Cl)cc3)N2)cc1` [Example 21-G, 4-(((2S,5R)-5-((R)-(4-chlorophenyl)(hydroxy)methyl)pyrrolidin-2-yl)methyl)-N-methyl-N-(pyridin-3-ylmethyl)benzamide] was tested. Which EC50 [1] did it give?
Answer: Its EC50 is 6 nM.

Question: And the “Fold drop in potency vs. 2-chloropyridine analog” value?
Answer: Its value is 1.3 fold.

Question: What about the “Human β3-AR Agonist Activity (%)” value of the same compound?
Answer: The value was 88%.

Question: `CC(c1cccnc1)N(C)C(=O)c1ccc(C[C@@H]2CC[C@H]([C@H](O)c3ccccc3)N2)cc1` (stereo partly drawn) [Example 23-B, 4-(((2S,5R)-5-((R)-hydroxy(phenyl)methyl)pyrrolidin-2-yl)methyl)-N-methyl-N-(1-(pyridin-3-yl)ethyl)benzamide] was tested. Which EC50 [1] did it give?
Answer: Its EC50 is 3 nM.

Question: And the “Fold drop in potency vs. 2-chloropyridine analog” value?
Answer: The value was 1.5 fold.

Question: And the “Human β3-AR Agonist Activity (%)” value?
Answer: Its value is 93%.

Question: With `CN(Cc1cccnc1)C(=O)c1ccc(C[C@@H]2CC[C@H]([C@H](O)c3ccc(NC4CC4)nc3)N2)cc1` [Example 21-N, 4-(((2S,5R)-5-((R)-(6-(cyclopropylamino)pyridin-3-yl)(hydroxy)methyl)pyrrolidin-2-yl)methyl)-N-methyl-N-(pyridin-3-ylmethyl)benzamide] as the compound, how does the EC50 [1] read?
Answer: Its EC50 is at least 10000 nM.

Question: And the “Fold drop in potency vs. 2-chloropyridine analog” value?
Answer: The value was over 2300 fold.

Question: And the “Human β3-AR Agonist Activity (%)” value?
Answer: The value was 27%.

Question: Which results are given for `CCc1[nH]nc(CN(C)C(=O)c2ccc(C[C@@H]3CC[C@H]([C@H](O)c4ccccc4)N3)cc2)c1C` [Example 12-B, N-((5-ethyl-4-methyl-1H-pyrazol-3-yl)methyl)-4-(((2S,5R)-5-((R)-hydroxy (phenyl)methyl)pyrrolidin-2-yl)methyl)-N-methylbenzamide]?
Answer: EC50 [1]: 18 nM; Fold drop in potency vs. 2-chloropyridine analog: 1.5 fold; Human β3-AR Agonist Activity (%): 120%

Question: `Cc1cc(CN(C)C(=O)c2ccc(C[C@@H]3CC[C@H]([C@H](O)c4ccc(F)nc4)N3)cc2)n[nH]1` [Example 4-Q, 4-(((2S,5R)-5-((R)-(6-fluoropyridin-3-yl)(hydroxy)methyl)pyrrolidin-2-yl)methyl)-N-methyl-N-((5-methyl-1H-pyrazol-3-yl)methyl)benzamide] was tested. Which EC50 [1] did it give?
Answer: Its EC50 is 78 nM.

Question: And the “Fold drop in potency vs. 2-chloropyridine analog” value?
Answer: Its value is 14.4 fold.

Question: And the “Human β3-AR Agonist Activity (%)” value?
Answer: The value was 106%.

Question: `Cc1cc(CN(C)C(=O)c2ccc(C[C@@H]3CC[C@H]([C@H](O)c4ccc(Cl)nc4)N3)cc2)n[nH]1` [Example 4-A, 4-(((2S,5R)-5-((R)-(6-chloropyridin-3-yl)(hydroxy)methyl)pyrrolidin-2-yl)methyl)-N-methyl-N-((5-methyl-1H-pyrazol-3-yl)methyl)benzamide] was tested. Which EC50 [1] did it give?
Answer: The EC50 was 5 nM.

Question: What about the “Human β3-AR Agonist Activity (%)” value of the same compound?
Answer: Its value is 104%.

Question: For `COCc1cc(CN(C)C(=O)c2ccc(C[C@@H]3CC[C@H]([C@H](O)c4ccccc4)N3)cc2)n[nH]1` [Example 9-B, 4-(((2S,5R)-5-((R)-hydroxy(phenyl)methyl)pyrrolidin-2-yl)methyl)-N-((5-(methoxymethyl)-1H-pyrazol-3-yl)methyl)-N-methylbenzamide], which EC50 [1] is on record?
Answer: Its EC50 is 15 nM.

Question: And the “Fold drop in potency vs. 2-chloropyridine analog” value?
Answer: Its value is 5.5 fold.

Question: And the “Human β3-AR Agonist Activity (%)” value?
Answer: Its value is 102%.

Reference: patent US20160235727A1, “NOVEL PYRROLIDINE DERIVED BETA 3 ADRENERGIC RECEPTOR AGONISTS” (Merck Sharp & Dohme Corp., priority 2013, published 2016)
